Laboratory results taken from PubChem BioAssay AID328 (DTP/NCI, 2004).
Values joined by “and” are separate entries in the source; they are usually repeats but may differ in a detail not shown here. Identical values can stand only once. Toxic doses and inconclusive results are not listed.

System: BDF1 mice, P388 leukemia ip, median survival T/C
Test: NCI In Vivo Anticancer Drug Screen. Data for tumor model P388 Leukemia (intraperitoneal) in B6D2F1 (BDF1) mice
Conditions: endpoint: median survival time, higher = longer survival
Procedure, shortened: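 Antitumour effect was judged in vivo: survival in drug-treated mice, normalised to that of vehicle-dosed controls, gives the reported T/C.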

[1] = dose: 25.0 mg/kg/injection, schedule: Q01DX009 (ip), vehicle: Klucel (hydroxypropylcellulose) (HPC)
[2] = dose: 50.0 mg/kg/injection, schedule: Q01DX009 (ip), vehicle: Klucel (hydroxypropylcellulose) (HPC)
[3] = dose: 100.0 mg/kg/injection, schedule: Q01DX009 (ip), vehicle: Klucel (hydroxypropylcellulose) (HPC)
[4] = dose: 100.0 mg/kg/injection, schedule: Q04DX003 (ip), vehicle: Klucel (hydroxypropylcellulose) (HPC)
[5] = dose: 200.0 mg/kg/injection, schedule: Q04DX003 (ip), vehicle: Klucel (hydroxypropylcellulose) (HPC)
[6] = dose: 400.0 mg/kg/injection, schedule: Q04DX003 (ip), vehicle: Klucel (hydroxypropylcellulose) (HPC)
[7] = dose: 50.0 mg/kg/injection, schedule: Q04DX003 (ip), vehicle: Klucel (hydroxypropylcellulose) (HPC)
[8] = dose: 37.5 mg/kg/injection, schedule: Q01DX009 (ip), vehicle: Klucel (hydroxypropylcellulose) (HPC)
[9] = dose: 50.0 mg/kg/injection, schedule: Q01DX009 (ip), vehicle: saline with Tween-80
[10] = dose: 100.0 mg/kg/injection, schedule: Q01DX009 (ip), vehicle: saline with Tween-80
[11] = dose: 200.0 mg/kg/injection, schedule: Q01DX009 (ip), vehicle: saline with Tween-80
[12] = dose: 12.5 mg/kg/injection, schedule: Q04DX003 (ip), vehicle: saline
[13] = dose: 25.0 mg/kg/injection, schedule: Q01DX009 (ip), vehicle: saline
[14] = dose: 25.0 mg/kg/injection, schedule: Q04DX003 (ip), vehicle: saline
[15] = dose: 50.0 mg/kg/injection, schedule: Q01DX009 (ip), vehicle: saline
[16] = dose: 50.0 mg/kg/injection, schedule: Q04DX003 (ip), vehicle: saline
[17] = dose: 100.0 mg/kg/injection, schedule: Q01DX009 (ip), vehicle: saline
[18] = dose: 100.0 mg/kg/injection, schedule: Q04DX003 (ip), vehicle: saline

COc1ccc(C(C#N)CC(=O)c2ccc(OCc3ccccc3)c(OC)c2)cc1OC (stereo not drawn)
T/C (dose: 50.0 mg/kg/injection, schedule: Q04DX003 (ip), vehicle: other): 96 % of control
T/C (dose: 100.0 mg/kg/injection, schedule: Q04DX003 (ip), vehicle: other): 88 % of control
T/C (dose: 200.0 mg/kg/injection, schedule: Q04DX003 (ip), vehicle: other): 87 % of control
T/C (dose: 400.0 mg/kg/injection, schedule: Q04DX003 (ip), vehicle: other): 90 % of control

CC(=O)N(O)CCCC1NC(=O)C(CCCN(O)C(C)=O)NC1=O (stereo not drawn)
T/C (dose: 100.0 mg/kg/injection, schedule: Q01DX001 (ip), vehicle: saline): 90 % of control
T/C (dose: 200.0 mg/kg/injection, schedule: Q01DX001 (ip), vehicle: saline): 90 % of control
T/C (dose: 400.0 mg/kg/injection, schedule: Q01DX001 (ip), vehicle: saline): 95 % of control

O=[N+]([O-])c1cc([N+](=O)[O-])c2nn(-c3ccccc3)[n+]([O-])c2c1
T/C [1]: 100 % of control
T/C [2]: 100 % of control
T/C [3]: 90 % of control
T/C [4]: 95 % of control
T/C [5]: 100 % of control
T/C [6]: 100 % of control

CCCCNC(=O)OC
T/C [2]: 100 % of control
T/C [7]: 100 % of control
T/C [3]: 100 % of control
T/C [4]: 95 % of control
T/C [5]: 115 % of control

CCCCCCCCC(=O)c1c(OC)oc(C=O)cc1=O
T/C (dose: 2.34 mg/kg/injection, schedule: Q01DX009 (ip), vehicle: Klucel (hydroxypropylcellulose) (HPC)): 96 % of control
T/C (dose: 4.69 mg/kg/injection, schedule: Q01DX009 (ip), vehicle: Klucel (hydroxypropylcellulose) (HPC)): 112 % of control and 118 % of control
T/C (dose: 9.38 mg/kg/injection, schedule: Q01DX009 (ip), vehicle: Klucel (hydroxypropylcellulose) (HPC)): 104 % of control and 108 % of control
T/C (dose: 18.7 mg/kg/injection, schedule: Q01DX009 (ip), vehicle: Klucel (hydroxypropylcellulose) (HPC)): 105 % of control
T/C (dose: 18.75 mg/kg/injection, schedule: Q01DX009 (ip), vehicle: Klucel (hydroxypropylcellulose) (HPC)): 96 % of control
T/C [8]: 93 % of control and 114 % of control and 121 % of control

CCOC(=O)CCc1nc(C(=O)OCC)c(C)c(=O)[nH]1
T/C (dose: 100.0 mg/kg/injection, schedule: Q04DX003 (ip), vehicle: saline with Tween-80): 107 % of control
T/C (dose: 200.0 mg/kg/injection, schedule: Q04DX003 (ip), vehicle: saline with Tween-80): 103 % of control
T/C (dose: 400.0 mg/kg/injection, schedule: Q04DX003 (ip), vehicle: saline with Tween-80): 100 % of control

CC(=O)NC(C(=O)N/N=C(\C)c1ccccc1)C(=O)N/N=C(\C)c1ccccc1
T/C [9]: 98 % of control
T/C [10]: 101 % of control
T/C [11]: 89 % of control

CC(=O)Nc1cc2c(cc1[N+](=O)[O-])-c1ccc([N+](=O)[O-])cc1C2
T/C (dose: 6.25 mg/kg/injection, schedule: Q01DX009 (ip), vehicle: Klucel (hydroxypropylcellulose) (HPC)): 89 % of control
T/C (dose: 12.5 mg/kg/injection, schedule: Q01DX009 (ip), vehicle: Klucel (hydroxypropylcellulose) (HPC)): 97 % of control
T/C [1]: 89 % of control and 91 % of control

Cc1ccc(S(=O)(=O)NN=C(c2ccccc2)c2ccccc2)cc1
T/C (dose: 12.5 mg/kg/injection, schedule: Q04DX003 (ip), vehicle: Klucel (hydroxypropylcellulose) (HPC)): 98 % of control
T/C (dose: 25.0 mg/kg/injection, schedule: Q04DX003 (ip), vehicle: Klucel (hydroxypropylcellulose) (HPC)): 103 % of control
T/C [7]: 103 % of control
T/C [4]: 97 % of control
T/C [5]: 97 % of control

Cc1cc(O)c(C(C)C)cc1S(=O)(=O)O (tested in a mixture with another compound)
T/C [8]: 95 % of control
T/C [9]: 100 % of control
T/C [10]: 95 % of control
T/C (dose: 150.0 mg/kg/injection, schedule: Q01DX009 (ip), vehicle: Klucel (hydroxypropylcellulose) (HPC)): 100 % of control
T/C (dose: 150.0 mg/kg/injection, schedule: Q01DX009 (ip), vehicle: saline with Tween-80): 150 % of control

CCCCNC(C)(C)CO
T/C (dose: 3.12 mg/kg/injection, schedule: Q01DX009 (ip), vehicle: saline): 100 % of control
T/C (dose: 6.25 mg/kg/injection, schedule: Q01DX009 (ip), vehicle: saline): 99 % of control
T/C (dose: 12.5 mg/kg/injection, schedule: Q01DX009 (ip), vehicle: saline): 99 % of control
T/C [12]: 102 % of control
T/C [13]: 99 % of control
T/C [14]: 100 % of control
T/C [15]: 86 % of control
T/C [16]: 102 % of control
T/C [17]: 103 % of control
T/C [18]: 95 % of control and 100 % of control

COc1cc(C(=O)OC2c3ccccc3CCC2N(C)C)cc(OC)c1OC (stereo not drawn)
T/C [13]: 102 % of control
T/C [15]: 103 % of control and 107 % of control
T/C [17]: 102 % of control

COC(=O)C1(C)CCCC2(C)C1CCC13C=C(C(C)C)C(CC1C(=O)O)CC23 (stereo not drawn)
T/C [9]: 95 % of control
T/C [10]: 91 % of control
T/C [11]: 95 % of control

O=C(O)CCc1nc(-c2ccccc2)c(-c2ccccc2)o1
T/C [9]: 100 % of control
T/C [10]: 104 % of control
T/C [11]: 119 % of control

NC(=O)c1nc(C(F)(F)F)[nH]c1C(N)=O
T/C (dose: 25.0 mg/kg/injection, schedule: Q01DX009 (ip), vehicle: water): 107 % of control
T/C (dose: 50.0 mg/kg/injection, schedule: Q01DX009 (ip), vehicle: water): 105 % of control and 107 % of control
T/C (dose: 50.0 mg/kg/injection, schedule: Q04DX003 (ip), vehicle: water): 102 % of control
T/C (dose: 100.0 mg/kg/injection, schedule: Q01DX009 (ip), vehicle: water): 108 % of control and 118 % of control
T/C (dose: 100.0 mg/kg/injection, schedule: Q04DX003 (ip), vehicle: water): 102 % of control
T/C (dose: 200.0 mg/kg/injection, schedule: Q01DX009 (ip), vehicle: water): 107 % of control and 118 % of control
T/C (dose: 200.0 mg/kg/injection, schedule: Q04DX003 (ip), vehicle: water): 109 % of control
T/C (dose: 300.0 mg/kg/injection, schedule: Q01DX009 (ip), vehicle: water): 96 % of control
T/C (dose: 400.0 mg/kg/injection, schedule: Q01DX009 (ip), vehicle: water): 118 % of control
T/C (dose: 400.0 mg/kg/injection, schedule: Q04DX003 (ip), vehicle: water): 102 % of control

COc1c(OC)c(OC)c2c(c1OC)c(=O)c1ccccc1n2C
T/C (dose: 50.0 mg/kg/injection, schedule: Q01DX010 (ip), vehicle: carboxymethylcellulose (CMC)): 104 % of control
T/C (dose: 100.0 mg/kg/injection, schedule: Q01DX010 (ip), vehicle: carboxymethylcellulose (CMC)): 122 % of control

COC(=O)c1ccc(OS(=O)(=O)c2cccc([N+](=O)[O-])c2)cc1
T/C [10]: 88 % of control
T/C [4]: 100 % of control
T/C [11]: 100 % of control
T/C [5]: 100 % of control
T/C (dose: 400.0 mg/kg/injection, schedule: Q01DX009 (ip), vehicle: saline with Tween-80): 88 % of control
T/C [6]: 100 % of control

Cc1cccc(NC2=C(C#N)C(=O)NC3(CCCC3)S2)c1
T/C [9]: 119 % of control
T/C [10]: 103 % of control
T/C [11]: 100 % of control

Cc1nnc2n1N=C(c1ccc(O)c(O)c1O)CS2
T/C [9]: 94 % of control
T/C [10]: 93 % of control
T/C [11]: 107 % of control

CC(=O)Nc1ccc2ccc(Cl)nc2n1
T/C [18]: 95 % of control
T/C (dose: 200.0 mg/kg/injection, schedule: Q04DX003 (ip), vehicle: saline): 100 % of control
T/C (dose: 400.0 mg/kg/injection, schedule: Q04DX003 (ip), vehicle: saline): 104 % of control

CC1(C)CN(C(C)(C)C)CC(C)(C)C(=O)C1=O
T/C [12]: 90 % of control
T/C [14]: 95 % of control
T/C [16]: 95 % of control

c1ccc([I+]c2ccccc2)cc1
T/C (dose: 1.0 mg/kg/injection, schedule: Q01DX009 (ip), vehicle: saline): 100 % of control
T/C (dose: 2.0 mg/kg/injection, schedule: Q01DX009 (ip), vehicle: saline): 104 % of control
T/C (dose: 4.0 mg/kg/injection, schedule: Q01DX009 (ip), vehicle: saline): 90 % of control
T/C (dose: 12.5 mg/kg/injection, schedule: Q04DX003 (ip), vehicle: saline sonified): 115 % of control
T/C (dose: 12.5 mg/kg/injection, schedule: Q04DX003 (sc), vehicle: olive oil, sesame oil, peanut oil): 96 % of control
T/C (dose: 25.0 mg/kg/injection, schedule: Q04DX003 (sc), vehicle: olive oil, sesame oil, peanut oil): 100 % of control
